# Laboratory results reported in PubChem BioAssay (NCI).
#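 These data come from cells grown in 96-well plates and exposed to compound for 48 hours at five concentrations. GI50 marks 50% less growth. TGI: concentration producing complete growth inhibition.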
# Assays:
# Assay in all cases: NCI-60 cell line screen, 48 h
# [1] = system: A549 NSCLC
# [2] = system: ACHN renal
# [3] = system: COLO 205 colon
# [4] = system: HCT-116 colon
# [5] = system: HT29 colon
# [6] = system: K-562 leukemia
# [7] = system: KM12 colon
# [8] = system: SNB-75 CNS
# [9] = system: TK-10 renal
# [10] = system: BT-549 breast
# [11] = system: NCI/ADR-RES ovarian
Compound,GI50 [1] [µM],TGI [1] [µM],GI50 [2] [µM],TGI [2] [µM],GI50 [3] [µM],TGI [3] [µM],GI50 [4] [µM],TGI [4] [µM],GI50 [5] [µM],TGI [5] [µM],GI50 [6] [µM],TGI [6] [µM],GI50 [7] [µM],TGI [7] [µM],GI50 [8] [µM],TGI [8] [µM],GI50 [9] [µM],TGI [9] [µM],TGI [10] [µM],TGI [11] [µM]
O=C(Nc1cccc(-n2ccc3c(NC(=O)c4ccccc4)nccc32)c1)Nc1cc(C(F)(F)F)cc(C(F)(F)F)c1,1.97,> 50,1.48,7.61,1.68,5.29,1.69,6.31,1.37,4.31,1.68,> 50,1.53,4.7,1.09,3.89,1.83,32.5,–,–
O=C(c1ccco1)N1CCCN(C(=O)c2ccco2)C1=S,–,–,–,> 100,–,> 100,–,> 100,–,> 100,–,> 100,–,> 100,–,–,–,> 100,> 100,> 100
Cc1ccc(S(=O)(=O)N/N=C(\c2nc3ccc(Cl)cc3[nH]c2=O)C(O)c2cccc([N+](=O)[O-])c2)cc1 (configuration not stated),–,> 100,–,> 100,–,> 100,–,> 100,–,> 100,–,> 100,–,> 100,–,> 100,–,> 100,–,–
Cc1c(Cl)c2ccccc2n1S(=O)(=O)c1ccccc1,–,> 100,–,> 100,–,> 100,–,> 100,–,> 100,–,> 100,–,> 100,–,58,–,> 100,–,–
O=C(/C=C/c1ccc(O)c(O)c1)OCCCc1ccccc1,–,31.3,–,21.2,–,27.1,–,22.4,–,48.4,–,58.9,–,–,–,–,–,–,–,28.6
COC(=O)/C(=C\Nc1cccc(C)n1)S(=O)(=O)c1ccc(C)cc1,–,> 100,–,> 100,–,49.9,–,> 100,–,> 100,–,75.5,–,90.3,–,> 100,–,> 100,–,> 100
CCC(CON(C)c1ccccc1)(SC)SC,–,> 100,–,> 100,–,> 100,–,> 100,–,> 100,–,–,–,> 100,–,> 100,–,> 100,> 100,> 100
CCOC(=O)C1(C/C=C(/C)Cl)CCCC1=O (configuration not stated),–,> 100,–,> 100,–,> 100,–,> 100,–,> 100,–,> 100,–,> 100,–,> 100,–,> 100,–,–
CC(=O)OCCCOCn1c(Cc2ccccc2)c(C)c(=O)[nH]c1=O,–,> 100,–,> 100,–,> 100,–,> 100,–,> 100,–,> 100,–,> 100,–,> 100,–,> 100,> 100,–
COC(=O)/C=C1/CCC(C(=O)OC)N1 (configuration not stated),–,> 100,–,> 100,–,> 100,–,> 100,–,–,–,> 100,–,> 100,–,> 100,–,> 100,–,–
COc1ccc(-c2cc(=O)c3cc4c(cc3[nH]2)OCO4)cc1OC,–,> 100,–,> 100,–,> 100,–,> 100,–,> 100,–,> 100,–,> 100,–,> 100,–,> 100,–,–
CCN(CC)CC1CCCCN1CC(=O)N1c2ccccc2NC(=O)CC1C (configuration not stated),–,> 100,–,> 100,–,> 100,–,> 100,–,> 100,–,> 100,–,> 100,–,–,–,> 100,> 100,> 100
O=C(NCCC1([N+](=O)[O-])CCN(C(=O)c2ccccc2)CC1)c1ccccc1,–,> 100,–,> 100,–,> 100,–,> 100,–,> 100,–,> 100,–,> 100,–,–,–,> 100,> 100,> 100
CC(C)(C)N=NNc1cn(C2OC(CO)C(O)C2O)c(=O)[nH]c1=O (configuration not stated),–,> 100,–,> 100,–,> 100,–,> 100,–,> 100,–,> 100,–,> 100,–,> 100,–,> 100,–,–
OC(c1cc2ccccc2o1)c1cc2ccccc2s1 (configuration not stated),–,> 10,–,> 10,–,> 10,–,> 10,–,> 10,–,> 10,–,> 10,–,> 10,–,> 10,–,> 10
COC(=O)C1Cc2c(OC)ccc(OC)c2CC(C(=O)OC)C1=O (configuration not stated),–,> 100,–,> 100,–,> 100,–,> 100,–,> 100,–,> 100,–,> 100,–,> 100,–,–,> 100,> 100
N#CC1=C(N)n2c(s/c(=C\c3ccc(Cl)cc3)c2=O)=C(c2nc3ccccc3[nH]2)C1c1ccc(Cl)cc1 (configuration not stated),–,10.9,–,5.26,–,6.38,–,3.61,–,–,–,4.94,–,3.06,–,17.8,–,2.62,–,–
Cc1nc(C)c(C(=O)NNC(N)=S)cc1C(=O)NNC(N)=S,–,> 100,–,> 100,–,> 100,–,> 100,–,> 100,–,> 100,–,> 100,–,–,–,> 100,> 100,> 100
CCCN1C(=O)CC(C)N(Cc2ccccc2Cl)C1=S (configuration not stated),–,> 100,–,88.4,–,32.9,–,79.4,–,> 100,–,–,–,92.5,–,–,–,67.4,57.5,53.1
CC1(C)N=C(C(N)=O)c2ncn(N)c2N1,–,> 100,–,> 100,–,> 100,–,> 100,–,> 100,–,> 100,–,> 100,–,> 100,–,> 100,–,> 100
COc1cc2c(c(OC)c1OC)-c1ccc(SC)c(=O)cc1[C@@H](NCc1ccc(C#N)cc1)CC2,–,28.6,–,> 100,–,0.0128,–,0.0215,–,–,–,> 100,–,–,–,> 100,–,> 100,–,–
COC(=O)c1c(O)ccc2c1c1c(n2Cc2ccccc2Cl)C(=O)c2ccccc2C1=O,–,26.7,–,36.7,–,15.8,–,31.2,–,3.58,–,97.3,–,24.1,–,–,–,30.6,29.2,39.3

Compound,GI50 [1] [µM],TGI [1] [µM],GI50 [2] [µM],TGI [2] [µM],GI50 [3] [µM],TGI [3] [µM],GI50 [4] [µM],TGI [4] [µM],GI50 [5] [µM],TGI [5] [µM],GI50 [6] [µM],TGI [6] [µM],GI50 [7] [µM],TGI [7] [µM],GI50 [8] [µM],TGI [8] [µM],GI50 [9] [µM],TGI [9] [µM],TGI [10] [µM],TGI [11] [µM]
O=C(/C=C/c1ccc(O)cc1)c1ccc2c(c1)OCO2,–,44.8,–,52.8,–,32,–,25.4,–,33.7,–,81.5,–,33.7,–,50.3,–,–,–,67.9
O=S(=O)(CCBr)CCBr,–,27.8,–,–,–,12.7,–,10.5,–,20.3,–,> 48.8,–,30,–,25.5,–,–,–,5.02
NC(CCCC(N)P(=O)(O)c1ccccc1)P(=O)(O)c1ccccc1 (configuration not stated),–,> 261,–,> 261,–,> 261,–,> 261,–,> 261,–,> 261,–,> 261,–,> 261,–,> 261,–,–
CC(=O)N=C1N(/C=C2\C(=O)Oc3ccccc3C2=O)C(=O)/C(=C/c2ccc(OC(C)=O)cc2)N1C,–,> 100,–,> 100,–,> 100,–,> 100,–,> 100,–,> 100,–,> 100,–,> 100,–,–,–,> 100
Cc1cnc2sn(-c3ccc(Oc4ccccc4)cc3)c(=O)c2c1,–,46,–,31.6,–,47.1,–,71.4,–,39.6,–,–,–,28,–,34.5,–,40.1,42.2,55.7
CC(=O)OCCOCn1c2c(c(=S)[nH]c1=O)CCC2,–,> 100,–,> 100,–,> 100,–,> 100,–,> 100,–,> 100,–,> 100,–,> 100,–,> 100,> 100,–
C[n+]1c(-c2ccc(/C=N/NC(=N)N/N=C/c3ccc(-c4cn5cc(Cl)ccc5[n+]4C)cc3)cc2)cn2cc(Cl)ccc21,–,> 100,–,> 100,–,> 100,–,> 100,–,> 100,–,> 100,–,> 100,–,> 100,–,> 100,–,> 100
COc1cc(C2c3cc4c(cc3[C@@H](Nc3ccccc3)C3COC[C@H]23)OCO4)cc(OC)c1O (some centres not stated),–,14,–,3.82,–,70.7,–,19.8,–,45.5,–,–,–,32.5,–,11.9,–,> 100,–,> 100
[N-]=[N+]=C1N=CN=C1c1ncn[nH]1,–,> 100,–,> 100,–,> 100,–,> 100,–,> 100,–,60,–,> 100,–,> 100,–,> 100,–,> 100
CCc1cc(Cc2cc(Cl)c(NC(=O)C(=O)C3NC(=O)NC3=O)c(CC)c2)cc(Cl)c1NC(=O)C(=O)C1NC(=O)NC1=O (configuration not stated),–,> 100,–,> 100,–,> 100,–,94.8,–,54,–,> 100,–,> 100,–,90.7,–,> 100,–,–
Clc1ccc(SC(/C=C/NNC2=NC(c3ccccc3)C(c3ccccc3)=NN2)c2ccccc2)cc1 (configuration not stated),–,> 100,–,> 100,–,45.6,–,92,–,39.3,–,53.1,–,67.2,–,64.7,–,> 100,–,–
CCCSc1ccc2[nH]c(N3C(=O)/C(=C/c4ccco4)N=C3c3ccccc3)cc2c1,–,> 50,–,> 50,–,32.8,–,> 50,–,> 50,–,> 50,–,> 50,–,> 50,–,–,> 50,> 50
O=C(c1ccc(Cl)cc1)c1ccc(OCCCOc2ccc(C(=O)c3ccc(Cl)cc3)cc2)cc1,–,> 100,–,> 100,–,> 100,–,> 100,–,> 100,–,> 100,–,> 100,–,> 100,–,> 100,–,–
NC(N)=N/N=C/c1nc2n(c1[N+](=O)[O-])CCS2,–,> 100,–,> 100,–,27.4,–,54.1,–,> 100,–,–,–,> 100,–,60.2,–,> 100,> 100,> 100
O=c1[nH]c(=O)n(C2OC(COP(=O)(O)OP(=O)(O)OC3OC(CO)C(O)C(O)C3O)C(O)C2O)cc1F (configuration not stated),–,8.56,–,7.18,–,7.14,–,1.23,–,> 100,–,> 100,–,10.7,–,> 100,–,30.4,–,–
Cc1nc(Nc2ccc(Cl)cc2)sc1C(=O)NNc1ccc([N+](=O)[O-])cc1[N+](=O)[O-],–,34.2,–,40.9,–,39.9,–,26.7,–,–,–,46.1,–,33.9,–,32.5,–,37.2,–,–
COc1ccc2nc3c([N+](=O)[O-])ccc4c3c(c2c1)NCCN4CCO,–,2.68,–,2.25,–,1.74,–,1.22,–,2.02,–,1.08,–,2.35,–,1.88,–,4.51,–,4.41
CN(C)c1ccc(C(=C(c2ccc(N(C)C)cc2)c2ccc(N(C)C)cc2)c2ccc(N(C)C)cc2)cc1,–,31.4,–,24.6,–,> 100,–,42.1,–,35.2,–,36.9,–,47.8,–,27.8,–,31.5,–,–
O=[N+]([O-])C1CC/C(=N/O)c2nonc21 (configuration not stated),–,> 10,–,> 10,–,> 10,–,> 10,–,> 10,–,> 10,–,> 10,–,–,–,> 10,> 10,> 10
O=C1Nc2ccccc2C12CCNC2Cc1ccccc1 (configuration not stated),–,> 100,–,> 100,–,> 100,–,> 100,–,> 100,–,> 100,–,> 100,–,> 100,–,> 100,–,–
BrCCCCCOc1ccc(-c2c3ccccc3c(-c3ccc(OCCCCCBr)cc3)c3ccccc23)cc1,–,> 100,–,> 100,–,> 100,–,> 100,–,> 100,–,> 100,–,> 100,–,> 100,–,> 100,–,> 100
